Patent publication US10286038B2, “Lysosome membrane protein 2 (LIMP-2) based peptides and related uses” (Northwestern University, priority 2016, dated 2019)

Target: T1, lysosomal GC of living H4 cells (Homo sapiens, UniProt P04062)
T1 construct: Lysosomal GC activity of living H4 cells measured in vivo after incubation with uptake-optimized TAT-peptides; endogenous in cells; host or cells: H4 human neuroglioma cells (for the 74 h course: stably overexpressing α-synuclein)
T1 sequence (P04062 40-536): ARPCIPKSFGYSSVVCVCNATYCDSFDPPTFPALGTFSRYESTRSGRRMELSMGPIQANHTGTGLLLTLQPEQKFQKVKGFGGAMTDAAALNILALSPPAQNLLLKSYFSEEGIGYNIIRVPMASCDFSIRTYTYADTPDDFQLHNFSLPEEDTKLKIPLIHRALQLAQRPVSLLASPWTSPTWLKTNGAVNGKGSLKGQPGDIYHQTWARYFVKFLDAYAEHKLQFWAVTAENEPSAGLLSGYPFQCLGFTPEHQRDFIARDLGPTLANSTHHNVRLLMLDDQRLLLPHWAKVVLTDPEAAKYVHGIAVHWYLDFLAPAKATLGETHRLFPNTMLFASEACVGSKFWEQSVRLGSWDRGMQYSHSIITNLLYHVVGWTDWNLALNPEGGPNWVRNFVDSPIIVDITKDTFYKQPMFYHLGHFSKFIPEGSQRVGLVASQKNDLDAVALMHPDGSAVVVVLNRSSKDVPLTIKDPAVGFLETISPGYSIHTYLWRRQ
Test: live-cell lysosomal GC activity assay in H4 cells
Type: cell-based
Details: 10 μM TAT peptide, relative to buffer control
Method: Lysosomal GC activity in living cells was assessed by applying a drug-response assay in the presence and absence of a lysosomal inhibitor (bafilomycin A1; Invivogen) dissolved in DMSO (24). TAT peptides (10 μM) were added to the cell medium for 1 h; then H4 cells (see Table 5) were incubated with 100 μg/mL cell-permeable artificial substrate 5-(pentafluorobenzoylamino) fluorescein di-β-D-glucopyranoside (PFB-FDGlu) (Life Technologies, Thermo Fisher Scientific) for another hour. Cells were washed with warm medium; then the medium was replaced with phenol red-free neurobasal medium (Life Technologies, Thermo Fisher Scientific). The fluorescence intensity was recorded every 30 min for β-4 h in a SpectraMax i3 plate reader (Molecular Devices) (PFB-FDGlu: excitation=485 nm, emission=530 nm). After the final reading, cells were fixed in 4% formaldehyde/PBS and were stained with CellTag 700 (LICOR Biosciences) according to the manufacturer's instructions to measure cell volume. The plate was scanned on an Odyssey infrared imager (LI-COR Biosciences). Fluorescence intensities were normalized to cell volume and graphed versus time. Whole-cell activity was obtained by calculating the area below the DMSO curve. Nonlysosomal activity corresponds to the area under the bafilomycin A1 curve. Lysosomal activity was obtained by subtracting both areas (FIG. 6H).

**Q.** How did the “elevation of GC activity within lysosomes of living cells” value turn out when “Biotin-Ttds-KFERQLREIIEAMLKAYQQKLFVTHTVDEYGRKKRRQRRR [helix 5 TAT-peptide]” was run?
**A.** 18%
